Assay results as given in US20130102683A1, “MELT-GRANULATED FINGOLIMOD” (RATIOPHARM GMBH, priority 2010, published 2013).
Structures can show the parent of a compound that is named as a salt.

Assay: Water adsorption of fingolimod salts under set atmospheric humidity (hygrostat)
Assay type: physicochemical
Conditions: atmospheric humidity set at 75% by means of a hygrostat; after 2 weeks
Description: In addition, experiments on various salts of fingolimod have shown that depending on the ambient conditions, the possibility of water adsorption exists. […] Water adsorption on this scale is detrimental to the storage stability of dosage forms containing fingolimod, especially in the case of tablets, granules or powders.

increase of water content: 7 fold
Structure (SMILES): CCCCCCCCc1ccc(CCC(N)(CO)CO)cc1 [hydrochloride of fingolimod]
